Test results taken from US7700609B2, “Compositions useful as inhibitors of protein kinases” (Vertex Pharmaceuticals Incorporated, priority 2003, dated 2010).

What was measured:
Itk [1] = molecular target: T1, Itk (Homo sapiens, UniProt Q08881); test: Itk inhibition assay: radioactivity-based (Method A); assay type: biochemical; details: 15 μM ATP, read-out: IC50 in the radioactive incorporation assay (Method A)
T1 sequence (Q08881 1-620): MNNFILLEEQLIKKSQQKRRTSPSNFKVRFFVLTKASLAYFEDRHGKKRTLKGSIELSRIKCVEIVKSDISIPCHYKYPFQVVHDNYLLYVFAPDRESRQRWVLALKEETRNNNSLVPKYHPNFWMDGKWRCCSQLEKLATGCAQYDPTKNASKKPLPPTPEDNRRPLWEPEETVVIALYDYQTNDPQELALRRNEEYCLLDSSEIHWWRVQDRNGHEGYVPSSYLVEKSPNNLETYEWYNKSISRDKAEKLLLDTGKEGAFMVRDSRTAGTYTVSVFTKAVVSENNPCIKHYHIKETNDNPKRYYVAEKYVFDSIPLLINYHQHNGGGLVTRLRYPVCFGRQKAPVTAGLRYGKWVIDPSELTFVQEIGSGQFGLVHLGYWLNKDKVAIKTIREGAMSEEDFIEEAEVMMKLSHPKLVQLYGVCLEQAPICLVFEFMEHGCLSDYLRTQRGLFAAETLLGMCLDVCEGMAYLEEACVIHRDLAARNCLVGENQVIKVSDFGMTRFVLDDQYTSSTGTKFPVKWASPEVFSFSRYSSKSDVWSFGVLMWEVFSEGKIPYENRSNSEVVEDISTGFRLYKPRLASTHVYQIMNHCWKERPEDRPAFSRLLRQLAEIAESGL
Procedure: (§1) The compounds of the present invention were evaluated as inhibitors of human Itk kinase using either a radioactivity-based, spectrophotometric or alphascreen assay.
Assays were carried out in a mixture of 100 mM HEPES (pH 7.5), 10 mM MgCl2, 25 mM NaCl, 0.01% BSA and 1 mM DTT. Final substrate concentrations were 15 μM [γ-^33P]ATP (400 μCi ^33P ATP/μmol ATP, Amersham Pharmacia Biotech/Sigma Chemicals) and 2 μM peptide (SAM68 protein Δ332-443). Assays were carried out at 25° C. in the presence of 30 nM Itk. An assay stock buffer solution was prepared containing all of the reagents listed above, with the exception of ATP and the test compound of interest. 50 μL of the stock solution was placed in a 96 well plate followed by addition of 1.5 μL of DMSO stock containing serial dilutions of the test compound (typically starting from a final concentration of 15 μM with 2-fold serial dilutions) in duplicate (final DMSO concentration 1.5%). The plate was pre-incubated for 10 minutes at 25° C. and the reaction initiated by addition of 50 μL [γ-^33P]ATP (final concentration 15 μM).
The reaction was stopped after 10 minutes by the addition of 50 μL of a TCA/ATP mixture (20% TCA, 0.4 mM ATP). A Unifilter GF/C 96 well plate (Perkin Elmer Life Sciences, Cat no. 6005174) was pretreated with 50 μL Milli Q water prior to the addition of the entire reaction mixture (150 μL). The plate was washed with 200 μL Milli Q water followed by 200 μL of a TCA/ATP mixture (5% TCA, 1 mM ATP). This wash cycle was repeated a further 2 times. After drying, 30 μL Optiphase ‘SuperMix’ liquid scintillation cocktail (Perkin Elmer) was added to the well prior to scintillation counting (1450 Microbeta Liquid Scintillation Counter, Wallac).
IC50 data were calculated from non-linear regression analysis of the initial rate data using the Prism software package (GraphPad Prism version 3.0cx for Macintosh, GraphPad Software, San Diego Calif., USA).

Itk [2] = molecular target: T1, Itk; test: Itk inhibition assay: Alphascreen (Method B); assay type: biochemical; details: 100 μM ATP
Procedure: as §1
Assays were carried out in a mixture of 20 mM MOPS (pH 7.0), 10 mM MgCl2, 0.1% BSA and 1 mM DTT. Final substrate concentrations in the assay were 100 μM ATP (Sigma Chemicals) and 2 μM peptide (Biotinylated SAM68 Δ332-443). Assays were carried out at 25° C. and in the presence of 10 nM Itk. An assay stock buffer solution was prepared containing all of the reagents listed above, with the exception of ATP and the test compound of interest. 25 μL of the stock solution was placed in each well of a 96 well plate followed by 1 μL of DMSO containing serial dilutions of the test compound (typically starting from a final concentration of 15 μM) in duplicate (final DMSO concentration 2%). The plate was preincubated for 10 minutes at 25° C. and the reaction initiated by addition of 25 μL ATP (final concentration 100 μM). Background counts were determined by the addition of 5 μL 500 mM EDTA to control wells containing assay stock buffer and DMSO prior to initiation with ATP. The reaction was stopped after 30 minutes by diluting the reaction 225-fold into MOPS buffer (20 mM MOPS (pH 7.0), 1 mM DTT, 10 mM MgCl2, 0.1% BSA) containing 50 mM EDTA to bring the final concentration of peptide to 9 nM.
AlphaScreen™ reagents were prepared according to the manufacturers instructions (AlphaScreen™ phosphotyrosine (P-Tyr-100) assay kit, PerkinElmer catalogue number 6760620C). Under subdued lighting, 20 μL of AlphaScreen™ reagents were placed in each well of a white half area 96 well plate (Corning Inc.—COSTAR 3693) with 30 μL of the stopped, diluted kinase reactions. Plates were incubated in the dark for 60 minutes prior to reading on a Fusion Alpha plate reader (PerkinElmer).
After removing mean background values for all of the data points, Ki(app) data were calculated from non-linear regression analysis using the Prism software package (GraphPad Prism version 3.0cx for Macintosh, GraphPad Software, San Diego Calif., USA).

| IC50 (Itk [1]) | Ki (Itk [2]) | SMILES |
| --- | --- | --- |
| < 1000 nM |  | NS(=O)(=O)c1cccc(Nc2ncc3c(n2)-c2cc(-c4ccccc4O)sc2CC3)c1 [Compound I-27] |
| < 1000 nM |  | COc1cccc(-c2cc3c(s2)CCc2cnc(Nc4cccc(O)c4)nc2-3)c1 [Compound I-19] |
| < 1000 nM |  | NS(=O)(=O)c1cccc(Nc2ncc3c(n2)-c2cc(-c4cccc([N+](=O)[O-])c4)sc2CC3)c1 [Compound I-13] |
| < 1000 nM |  | COc1cccc(OC)c1-c1cc2c(s1)CCc1cnc(Nc3cccc(S(N)(=O)=O)c3)nc1-2 [Compound I-14] |
| < 1000 nM |  | NS(=O)(=O)c1cccc(Nc2ncc3c(n2)-c2cc(-c4cccc(Cl)c4)sc2CC3)c1 [Compound I-15] |
| < 1000 nM |  | NS(=O)(=O)c1cccc(Nc2ncc3c(n2)-c2cc(-c4cccs4)sc2CC3)c1 [Compound I-8] |
| < 1000 nM |  | COc1ccccc1-c1cc2c(s1)CCc1cnc(Nc3cccc(S(N)(=O)=O)c3)nc1-2 [Compound I-9] |
| < 1000 nM |  | NS(=O)(=O)c1cccc(Nc2ncc3c(n2)-c2cc(-c4cccc(C(=O)O)c4)sc2CC3)c1 [Compound I-4] |
| < 1000 nM |  | COc1cccc(-c2cc3c(s2)CCc2cnc(Nc4ccc(S(N)(=O)=O)cc4)nc2-3)c1 [Compound I-18] |
| < 1000 nM |  | NS(=O)(=O)c1cccc(Nc2ncc3c(n2)-c2cc(-c4ccccc4CO)sc2CC3)c1 [Compound I-29] |
| < 1000 nM |  | NS(=O)(=O)c1cccc(Nc2ncc3c(n2)-c2cc(-c4ccccc4OC(F)(F)F)sc2CC3)c1 [Compound I-28] |
| < 1000 nM |  | NS(=O)(=O)c1cccc(Nc2ncc3c(n2)-c2cc(-c4ccccc4Cl)sc2CC3)c1 [Compound I-7] |
| < 1000 nM |  | NS(=O)(=O)c1cccc(Nc2ncc3c(n2)-c2cc(-c4ccccc4)sc2CC3)c1 [Compound I-1] |
| < 1000 nM |  | CC(=O)Nc1cccc(-c2cc3c(s2)CCc2cnc(Nc4cccc(S(N)(=O)=O)c4)nc2-3)c1 [Compound I-6] |
| < 1000 nM |  | COc1cccc(-c2cc3c(s2)CCc2cnc(Nc4ccc(S(C)(=O)=O)cc4)nc2-3)c1 [Compound I-25] |
| < 1000 nM |  | COc1ccc(-c2cc3c(s2)CCc2cnc(Nc4cccc(S(N)(=O)=O)c4)nc2-3)cc1 [Compound I-11] |

| IC50 (Itk [1]) | Ki (Itk [2]) | SMILES |
| --- | --- | --- |
| < 1000 nM |  | COc1cccc(-c2cc3c(s2)CCc2cnc(Nc4cccc(S(N)(=O)=O)c4)nc2-3)c1OC [Compound I-17] |
| < 1000 nM |  | NS(=O)(=O)c1cccc(Nc2ncc3c(n2)-c2cc(-c4ccsc4)sc2CC3)c1 [Compound I-5] |
| < 1000 nM |  | NS(=O)(=O)c1cccc(Nc2ncc3c(n2)-c2ccsc2CC3)c1 [Compound I-21] |
| < 1000 nM |  | COc1ccc(OC)c(-c2cc3c(s2)CCc2cnc(Nc4cccc(S(N)(=O)=O)c4)nc2-3)c1 [Compound I-20] |
| < 1000 nM |  | COc1cccc(-c2cc3c(s2)CCc2cnc(Nc4cccc(S(N)(=O)=O)c4)nc2-3)c1 [Compound I-2] |
| < 1000 nM |  | N#Cc1cccc(-c2cc3c(s2)CCc2cnc(Nc4cccc(S(N)(=O)=O)c4)nc2-3)c1 [Compound I-12] |
|  | < 1000 nM | CC(C)(C)OC(=O)N1CCN(C(=O)c2cc3c(ccc4cnc(Nc5cccc(S(N)(=O)=O)c5)nc43)s2)CC1 [Compound V-38] |
|  | < 1000 nM | NS(=O)(=O)c1cccc(Nc2ncc3c(n2)-c2sc(CO)nc2CC3)c1 [III-38] |
|  | < 1000 nM | CN(CCNC(=O)c1cc2c(ccc3cnc(Nc4cccc(S(N)(=O)=O)c4)nc32)s1)C(=O)OC(C)(C)C [Compound V-41] |
| < 1000 nM |  | NS(=O)(=O)c1cccc(Nc2ncc3c(n2)-c2cc(-c4cccnc4)sc2CC3)c1 [Compound I-3] |
| < 1000 nM |  | Nc1cccc(-c2cc3c(s2)CCc2cnc(Nc4cccc(S(N)(=O)=O)c4)nc2-3)c1 [Compound I-10] |
|  | < 1000 nM | CN1CCN(c2nc3c(s2)-c2nc(Nc4cccc(S(N)(=O)=O)c4)ncc2CC3)CC1 [III-39] |
|  | < 1000 nM | CC(C)(C)C(=O)OCc1nc2ccc3cnc(Nc4cccc(S(N)(=O)=O)c4)nc3c2s1 [II-36] |
| < 1000 nM |  | COc1cccc(-c2cc3c(s2)CCc2cnc(Nc4cccc(S(C)(=O)=O)c4)nc2-3)c1 [Compound I-24] |
| < 1000 nM |  | COc1cccc(-c2cc3c(s2)CCc2cnc(Nc4ccc(O)cc4)nc2-3)c1 [Compound I-23] |
